Assay results from PubChem BioAssay (NCI).
Where “and” joins values, the source holds several entries; their conditions need not be identical. Identical values can stand only once.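 Dose response: 5 concentrations. Exposure: 48 h. Format: 96-well plates. Endpoint: linear interpolation; highest concentration if not reached. GI50 = concentration required for 50% inhibition of growth. At the TGI there is no net growth.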

Columns and labels:
Experiment in all cases: inhibition of tumour cell growth, NCI panel, 48 h
[1] = test system: HS 578T breast
[2] = test system: SK-OV-3 ovarian
[3] = test system: HCT-15 colon
[4] = test system: SN12C renal
[5] = test system: HCT-116 colon
[6] = test system: SK-MEL-2 melanoma
[7] = test system: NCI-H226 lung
[8] = test system: HT29 colon
[9] = test system: RXF 393 renal
[10] = test system: COLO 205 colon

Structure (SMILES)	GI50 [1] [µM]	TGI [1] [µM]	GI50 [2] [µM]	TGI [2] [µM]	GI50 [3] [µM]	TGI [3]	GI50 [4] [µM]	TGI [4]	GI50 [5] [µM]	TGI [5] [µM]	GI50 [6] [µM]	TGI [6]	GI50 [7] [µM]	TGI [7]	GI50 [8] [µM]	TGI [8] [µM]	GI50 [9] [µM]	TGI [9]	GI50 [10] [µM]	TGI [10] [µM]
O=c1[nH]c2cc(O)ccc2n2cc3c(F)cccc3c12	3.85	> 100	1.65	> 100	0.536	> 100 µM	2.57	> 100 µM	0.881	> 100	> 21.2	> 100 µM	2.04	> 100 µM	5.33	> 100	0.969	> 100 µM	7.3	> 100
C[C@]12CC[C@@H]3c4ccc(O)cc4CC[C@H]3[C@@H]1CC[C@@H]2NS(=O)(=O)c1ccc(-c2ccccc2)cc1	7.37	> 100	6.79	> 100	3.04	16.5 µM	2.75	10.3 µM	2.88	11.4	3.78	13.6 µM	3.13	19.4 µM	3.3	9.16	2.58	8.08 µM	1.86	3.38
CCCCCCCCCCCCNC(=O)[C@H]1CSC(c2ccc(OC)c(F)c2)N1 (stereo partly specified)	0.241	0.577	1.96	3.43	1.78	3.39 µM	0.841	2.14 µM	0.421	1.41	1.77	3.41 µM	1.42	3.21 µM	0.837	2.42	0.867	2.2 µM	1.94	3.84
CCOC(=O)Cc1csc(NC(=O)C(OC(=O)c2ccc(N)cc2)c2ccccc2)n1 (stereo unspecified)	80.9	> 100	46.7	> 100	43.5	> 100 µM	46.6	> 100 µM	30.8	> 100	40.2	> 100 µM	60	> 100 µM	39.9	> 100	66.4	> 100 µM	46.2	> 100
OCCCCC#Cc1ccccc1C#Cc1cnccn1	24.9	85.1	46.3	> 100	33.3	> 100 µM	47.3	> 100 µM	42.6	> 100	70.7	> 100 µM	40	> 100 µM	27.6	> 100	15	54.2 µM	32	> 100
COc1cc(C(=O)N/N=C/c2cccc([N+](=O)[O-])c2)cc(OC)c1OC	2.02	8.6	31.9	> 100	6.78	> 100 µM	78.9	> 100 µM	4.09	> 100	4.16	> 100 µM	18	> 100 µM	2.89	8.1	6.9	34.3 µM	5.11	26.9
CC1(C)CC2(C)OC2C2(C1)N=NC(=Nc1ccccc1)O2 (stereo unspecified)	17.3	71.7	28.5	> 100	1.68	4.62 µM	2.48	8.33 µM	1.29	6.45	10.5	24.3 µM	10.7	29.6 µM	2.95	10.9	2.19	6.26 µM	10.9	24.9
CC1SC2(CCCCC2)N(NC(=O)c2[nH]c3ccc(F)cc3c2-c2ccccc2)C1=O (stereo unspecified)	66.8	> 100	> 100	> 100	> 100	> 100 µM	37.1	> 100 µM	64.9	> 100	76.2	> 100 µM	> 100	> 100 µM	> 100	> 100	28.3	> 100 µM	> 100	> 100
CC[C@@]1(OC(=O)CN(C)C)C(=O)OCc2c1cc1n(c2=O)Cc2cc3ccccc3nc2-1	3.53	> 100	0.123	2.88	0.257	5.03 µM and 3.09 µM		4.03 µM and 0.892 µM	0.0391		1.09	3.47 µM and 5.34 µM		0.42 µM and 0.445 µM	0.156		0.0665	0.643 µM and 0.43 µM	0.288	6.3
